Paper PMC5761851, “Application of a phenotypic drug discovery strategy to identify biological and chemical starting points for inhibition of TSLP production in lung epithelial cells” (PLoS ONE, 2018)

Experiments:
[1] = target: T1, APJ (apelin) (Homo sapiens, UniProt P35414); experiment: BioPrint panel: APJ (apelin) (h) (agonist); format: binding; conditions: 1 micromolar, read-out: percentage of inhibition of activity
T1 construct: purchased Eurofins Pharma Discovery Services (KinaseProfiler; Cerep BioPrint panel)
T1 sequence (P35414 whole entry): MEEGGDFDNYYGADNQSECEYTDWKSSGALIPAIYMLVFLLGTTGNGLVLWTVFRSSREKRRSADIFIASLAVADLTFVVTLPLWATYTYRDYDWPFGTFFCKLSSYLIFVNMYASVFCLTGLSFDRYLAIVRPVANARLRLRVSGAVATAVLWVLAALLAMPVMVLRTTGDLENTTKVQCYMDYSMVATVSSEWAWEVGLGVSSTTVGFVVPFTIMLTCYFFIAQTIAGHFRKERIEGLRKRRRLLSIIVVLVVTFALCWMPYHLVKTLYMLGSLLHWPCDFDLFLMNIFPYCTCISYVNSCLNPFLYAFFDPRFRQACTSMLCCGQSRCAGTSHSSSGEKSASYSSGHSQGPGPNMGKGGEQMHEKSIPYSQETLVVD
Description: (§1) Supplement pone.0189247.s004.xlsx, sheet "Bioprint Selectivity Panel" | column: %

[2] = target: T2, CCK1 (CCKA) (Homo sapiens, UniProt P32238); experiment: BioPrint panel: CCK1 (CCKA) (h) (agonist); format: binding; conditions: 1 micromolar, read-out: percentage of inhibition of activity
T2 construct: purchased Eurofins Pharma Discovery Services (KinaseProfiler; Cerep BioPrint panel)
Description: as §1

[3] = target: T3, alpha 1A (Homo sapiens, UniProt P35348); experiment: BioPrint panel: alpha 1A (h) (antagonist); format: binding; conditions: 1 micromolar, read-out: percentage of inhibition of activity
T3 construct: purchased Eurofins Pharma Discovery Services (KinaseProfiler; Cerep BioPrint panel)
T3 sequence (P35348 whole entry): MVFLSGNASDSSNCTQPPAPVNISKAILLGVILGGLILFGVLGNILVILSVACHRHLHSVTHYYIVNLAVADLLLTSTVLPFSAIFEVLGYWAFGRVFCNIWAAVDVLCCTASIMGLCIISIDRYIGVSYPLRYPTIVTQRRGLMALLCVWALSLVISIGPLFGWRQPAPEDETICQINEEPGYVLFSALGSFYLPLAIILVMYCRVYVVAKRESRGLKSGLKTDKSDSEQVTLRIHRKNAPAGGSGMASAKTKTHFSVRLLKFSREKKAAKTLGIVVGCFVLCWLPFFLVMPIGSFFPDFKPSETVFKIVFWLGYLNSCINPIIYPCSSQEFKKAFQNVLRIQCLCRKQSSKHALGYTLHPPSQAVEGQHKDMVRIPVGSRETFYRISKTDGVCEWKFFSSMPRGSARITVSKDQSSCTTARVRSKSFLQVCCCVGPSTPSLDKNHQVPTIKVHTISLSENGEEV
Description: as §1

[4] = target: T4, 5-HT6 (Homo sapiens, UniProt P50406); experiment: BioPrint panel: 5-HT6 (h) (agonist); format: binding; conditions: 1 micromolar, read-out: percentage of inhibition of activity
T4 construct: purchased Eurofins Pharma Discovery Services (KinaseProfiler; Cerep BioPrint panel)
Description: as §1

[5] = target: T5, NOP (ORL1) (Homo sapiens, UniProt P41146); experiment: BioPrint panel: NOP (ORL1) (h) (agonist); format: binding; conditions: 1 micromolar, read-out: percentage of inhibition of activity
T5 construct: purchased Eurofins Pharma Discovery Services (KinaseProfiler; Cerep BioPrint panel)
Description: as §1

[6] = target: T6, GABAB(1b) (Homo sapiens, UniProt Q9UBS5); experiment: BioPrint panel: GABAB(1b) (h) (antagonist); format: binding; conditions: 1 micromolar, read-out: percentage of inhibition of activity
T6 construct: purchased Eurofins Pharma Discovery Services (KinaseProfiler; Cerep BioPrint panel)
T6 sequence (Q9UBS5 1-844 isoform Q9UBS5-2): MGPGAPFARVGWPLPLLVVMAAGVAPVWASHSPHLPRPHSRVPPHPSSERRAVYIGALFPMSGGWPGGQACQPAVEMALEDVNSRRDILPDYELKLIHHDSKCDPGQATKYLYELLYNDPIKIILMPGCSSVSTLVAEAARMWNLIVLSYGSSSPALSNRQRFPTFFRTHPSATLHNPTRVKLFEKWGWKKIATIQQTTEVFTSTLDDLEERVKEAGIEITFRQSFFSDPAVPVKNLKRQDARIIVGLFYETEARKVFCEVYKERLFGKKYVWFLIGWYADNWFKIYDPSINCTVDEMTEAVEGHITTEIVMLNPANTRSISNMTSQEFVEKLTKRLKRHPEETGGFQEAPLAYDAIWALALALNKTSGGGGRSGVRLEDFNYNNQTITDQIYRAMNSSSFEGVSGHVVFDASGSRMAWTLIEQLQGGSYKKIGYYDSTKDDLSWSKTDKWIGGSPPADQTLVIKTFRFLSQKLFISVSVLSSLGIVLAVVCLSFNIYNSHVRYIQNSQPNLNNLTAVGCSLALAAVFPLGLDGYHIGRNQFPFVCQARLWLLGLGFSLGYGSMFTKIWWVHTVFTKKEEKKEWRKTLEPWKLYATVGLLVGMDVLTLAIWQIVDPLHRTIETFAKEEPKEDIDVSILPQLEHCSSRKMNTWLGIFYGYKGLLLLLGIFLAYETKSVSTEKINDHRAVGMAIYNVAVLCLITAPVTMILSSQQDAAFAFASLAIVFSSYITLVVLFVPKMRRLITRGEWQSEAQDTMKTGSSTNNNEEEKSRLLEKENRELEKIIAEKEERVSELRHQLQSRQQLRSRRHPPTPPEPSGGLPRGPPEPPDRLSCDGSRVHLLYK
Description: as §1

[7] = tested on: Ca2+ channel (L, dihydropyridine site); experiment: BioPrint panel: Ca2+ channel (L, dihydropyridine site) (antagonist); format: binding; conditions: 1 micromolar
Description: as §1

[8] = target: T7, MC3 (Homo sapiens, UniProt P41968); experiment: BioPrint panel: MC3 (h) (agonist); format: binding; conditions: 1 micromolar, read-out: percentage of inhibition of activity
T7 construct: purchased Eurofins Pharma Discovery Services (KinaseProfiler; Cerep BioPrint panel)
Description: as §1

[9] = target: T8, NK2 (Homo sapiens, UniProt P21452); experiment: BioPrint panel: NK2 (h) (agonist); format: binding; conditions: 1 micromolar, read-out: percentage of inhibition of activity
T8 construct: purchased Eurofins Pharma Discovery Services (KinaseProfiler; Cerep BioPrint panel)
T8 sequence (P21452 whole entry): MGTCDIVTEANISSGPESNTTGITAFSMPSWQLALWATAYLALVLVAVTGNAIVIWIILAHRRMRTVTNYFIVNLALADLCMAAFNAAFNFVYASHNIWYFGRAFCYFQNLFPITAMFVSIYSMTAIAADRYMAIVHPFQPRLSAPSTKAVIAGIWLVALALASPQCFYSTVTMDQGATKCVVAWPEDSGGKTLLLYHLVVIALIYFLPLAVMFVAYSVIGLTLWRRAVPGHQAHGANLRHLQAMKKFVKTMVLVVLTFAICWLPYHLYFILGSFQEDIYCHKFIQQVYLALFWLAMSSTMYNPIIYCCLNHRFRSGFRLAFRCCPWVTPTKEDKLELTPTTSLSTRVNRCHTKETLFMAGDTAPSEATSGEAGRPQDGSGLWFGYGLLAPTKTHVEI
Description: as §1

[10] = target: T9, Ca2+ channel (N) (Rattus norvegicus, UniProt Q02294); experiment: BioPrint panel: Ca2+ channel (N) (antagonist); format: binding; conditions: 1 micromolar, read-out: percentage of inhibition of activity
T9 construct: purchased Eurofins Pharma Discovery Services (KinaseProfiler; Cerep BioPrint panel)
T9 sequence (Q02294 whole entry): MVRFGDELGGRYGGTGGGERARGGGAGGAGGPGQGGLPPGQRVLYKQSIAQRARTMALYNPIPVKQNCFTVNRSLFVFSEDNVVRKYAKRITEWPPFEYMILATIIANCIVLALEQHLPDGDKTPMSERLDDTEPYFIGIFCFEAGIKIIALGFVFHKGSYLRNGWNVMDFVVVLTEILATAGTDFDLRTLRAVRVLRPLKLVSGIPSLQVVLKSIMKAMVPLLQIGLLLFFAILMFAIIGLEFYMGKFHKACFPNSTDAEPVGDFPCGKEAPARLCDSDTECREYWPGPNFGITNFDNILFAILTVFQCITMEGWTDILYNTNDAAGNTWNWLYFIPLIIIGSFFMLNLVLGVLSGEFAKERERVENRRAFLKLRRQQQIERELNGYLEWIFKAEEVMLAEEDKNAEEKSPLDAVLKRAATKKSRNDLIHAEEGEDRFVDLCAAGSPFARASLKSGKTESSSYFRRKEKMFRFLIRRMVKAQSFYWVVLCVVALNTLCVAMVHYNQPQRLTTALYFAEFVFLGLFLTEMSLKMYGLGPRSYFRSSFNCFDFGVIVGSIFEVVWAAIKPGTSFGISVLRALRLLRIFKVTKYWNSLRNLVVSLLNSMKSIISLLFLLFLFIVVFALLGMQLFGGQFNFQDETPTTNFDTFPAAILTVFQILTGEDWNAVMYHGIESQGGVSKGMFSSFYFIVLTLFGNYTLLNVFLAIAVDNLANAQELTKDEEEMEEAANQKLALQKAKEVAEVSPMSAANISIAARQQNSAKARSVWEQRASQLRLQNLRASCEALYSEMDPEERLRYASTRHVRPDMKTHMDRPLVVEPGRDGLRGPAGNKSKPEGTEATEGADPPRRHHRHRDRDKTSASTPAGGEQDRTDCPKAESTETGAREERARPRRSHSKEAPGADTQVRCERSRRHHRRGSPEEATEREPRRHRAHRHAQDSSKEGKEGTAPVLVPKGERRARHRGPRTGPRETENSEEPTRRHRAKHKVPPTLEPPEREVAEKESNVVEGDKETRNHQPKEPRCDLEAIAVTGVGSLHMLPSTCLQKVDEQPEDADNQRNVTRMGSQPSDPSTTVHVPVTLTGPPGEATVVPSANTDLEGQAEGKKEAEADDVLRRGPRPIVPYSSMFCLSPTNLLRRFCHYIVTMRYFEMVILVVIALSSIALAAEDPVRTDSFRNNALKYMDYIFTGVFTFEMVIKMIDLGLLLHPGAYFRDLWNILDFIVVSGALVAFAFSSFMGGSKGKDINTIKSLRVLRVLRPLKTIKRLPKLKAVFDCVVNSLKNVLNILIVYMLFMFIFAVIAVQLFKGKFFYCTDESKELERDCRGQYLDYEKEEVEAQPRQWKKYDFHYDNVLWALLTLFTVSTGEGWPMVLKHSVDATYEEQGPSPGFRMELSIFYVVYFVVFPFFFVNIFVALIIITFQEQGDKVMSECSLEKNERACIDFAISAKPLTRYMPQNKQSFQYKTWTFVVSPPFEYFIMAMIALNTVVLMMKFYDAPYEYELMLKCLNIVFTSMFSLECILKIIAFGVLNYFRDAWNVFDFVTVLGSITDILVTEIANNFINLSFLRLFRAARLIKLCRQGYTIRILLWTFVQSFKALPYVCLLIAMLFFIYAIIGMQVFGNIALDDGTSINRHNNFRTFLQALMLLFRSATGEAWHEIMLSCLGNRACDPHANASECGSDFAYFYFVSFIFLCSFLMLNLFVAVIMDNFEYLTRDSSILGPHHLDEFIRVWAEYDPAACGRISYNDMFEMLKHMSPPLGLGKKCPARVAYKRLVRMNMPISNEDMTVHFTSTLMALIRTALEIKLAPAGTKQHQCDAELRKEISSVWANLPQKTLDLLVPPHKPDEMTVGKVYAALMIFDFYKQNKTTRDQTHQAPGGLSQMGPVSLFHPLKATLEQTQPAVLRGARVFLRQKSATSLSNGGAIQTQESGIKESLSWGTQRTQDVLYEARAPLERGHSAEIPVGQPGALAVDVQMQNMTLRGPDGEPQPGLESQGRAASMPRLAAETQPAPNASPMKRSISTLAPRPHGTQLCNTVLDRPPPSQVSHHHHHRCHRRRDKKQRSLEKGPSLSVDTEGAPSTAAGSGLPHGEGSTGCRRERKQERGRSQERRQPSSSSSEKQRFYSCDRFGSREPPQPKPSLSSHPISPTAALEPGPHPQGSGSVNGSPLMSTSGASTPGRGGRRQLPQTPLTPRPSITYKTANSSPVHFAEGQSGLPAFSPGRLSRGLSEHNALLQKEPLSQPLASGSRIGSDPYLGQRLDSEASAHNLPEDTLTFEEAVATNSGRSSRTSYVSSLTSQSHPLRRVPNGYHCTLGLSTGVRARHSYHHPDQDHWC
Description: as §1

[11] = tested on: Cl- channel (GABA-gated); experiment: BioPrint panel: Cl- channel (GABA-gated) (antagonist); format: binding; conditions: 1 micromolar
Description: as §1

[12] = target: T10, P-gp (Homo sapiens, UniProt P08183); experiment: BioPrint panel: P-gp (MDR1-MDCKII, calcein AM substrate); format: in vitro ADME; conditions: 10 micromolar
T10 construct: purchased Eurofins Pharma Discovery Services (KinaseProfiler; Cerep BioPrint panel)
Description: as §1

[13] = target: T11, H2 (Homo sapiens, UniProt P25021); experiment: BioPrint panel: H2 (h) (antagonist); format: binding; conditions: 1 micromolar, read-out: percentage of inhibition of activity
T11 construct: purchased Eurofins Pharma Discovery Services (KinaseProfiler; Cerep BioPrint panel)
Description: as §1

[14] = target: T12, CysLT1 (LTD4) (Homo sapiens, UniProt Q9Y271); experiment: BioPrint panel: CysLT1 (LTD4) (h) (agonist); format: binding; conditions: 1 micromolar, read-out: percentage of inhibition of activity
T12 construct: purchased Eurofins Pharma Discovery Services (KinaseProfiler; Cerep BioPrint panel)
Description: as §1

[15] = target: T13, PPARgamma (Homo sapiens, UniProt P37231); experiment: BioPrint panel: PPARgamma (h) (agonist); format: binding; conditions: 1 micromolar, read-out: percentage of inhibition of activity
T13 construct: purchased Eurofins Pharma Discovery Services (KinaseProfiler; Cerep BioPrint panel)
T13 sequence (P37231 whole entry): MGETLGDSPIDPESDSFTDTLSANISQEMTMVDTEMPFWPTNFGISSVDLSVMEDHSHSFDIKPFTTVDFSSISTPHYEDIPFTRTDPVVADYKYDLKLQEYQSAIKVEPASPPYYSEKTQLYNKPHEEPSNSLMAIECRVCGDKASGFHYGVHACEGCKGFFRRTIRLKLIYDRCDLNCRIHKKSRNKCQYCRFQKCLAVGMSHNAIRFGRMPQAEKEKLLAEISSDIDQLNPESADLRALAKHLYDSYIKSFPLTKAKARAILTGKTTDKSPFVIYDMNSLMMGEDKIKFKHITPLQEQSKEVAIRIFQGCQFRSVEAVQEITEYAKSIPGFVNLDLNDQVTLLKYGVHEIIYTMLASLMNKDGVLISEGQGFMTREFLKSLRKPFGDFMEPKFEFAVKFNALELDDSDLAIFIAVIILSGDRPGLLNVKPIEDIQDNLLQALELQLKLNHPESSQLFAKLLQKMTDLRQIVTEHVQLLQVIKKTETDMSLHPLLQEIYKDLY
Description: as §1

[16] = target: T14, alpha 1B (Homo sapiens, UniProt P35368); experiment: BioPrint panel: alpha 1B (h) (antagonist); format: binding; conditions: 1 micromolar, read-out: percentage of inhibition of activity
T14 construct: purchased Eurofins Pharma Discovery Services (KinaseProfiler; Cerep BioPrint panel)
Description: as §1

[17] = target: T15, M2 (Homo sapiens, UniProt P08172); experiment: BioPrint panel: M2 (h) (antagonist); format: binding; conditions: 1 micromolar, read-out: percentage of inhibition of activity
T15 construct: purchased Eurofins Pharma Discovery Services (KinaseProfiler; Cerep BioPrint panel)
Description: as §1

[18] = target: T16, Y1 (Homo sapiens, UniProt P25929); experiment: BioPrint panel: Y1 (h) (agonist); format: binding; conditions: 1 micromolar, read-out: percentage of inhibition of activity
T16 construct: purchased Eurofins Pharma Discovery Services (KinaseProfiler; Cerep BioPrint panel)
Description: as §1

[19] = tested on: AMPA; experiment: BioPrint panel: AMPA (agonist); format: binding; conditions: 1 micromolar
Description: as §1

[20] = target: T17, IRK (InsR) (Homo sapiens, UniProt P06213); experiment: BioPrint panel: IRK (h) (InsR); format: biochemical; conditions: 1 micromolar, read-out: percentage of inhibition of activity
T17 construct: purchased Eurofins Pharma Discovery Services (KinaseProfiler; Cerep BioPrint panel)
Description: as §1

Cn1cc(-c2cccc(-c3nc(C(=O)NC4C5CC6CC4CC(O)(C6)C5)c(N)nc3N)c2)cn1 (centres unmarked) [compound 4]
inhibition at 1 µM [1]: 0.8%
inhibition at 1 µM [2]: -0.1%
inhibition at 1 µM [3]: 2.8%
inhibition at 1 µM [4]: -5.3%
inhibition at 1 µM [5]: 12.3%
inhibition at 1 µM [6]: 15.4%
percentage of inhibition of activity [7]: -3.5%
inhibition at 1 µM [8]: 8.8%
inhibition at 1 µM [9]: -1.8%
inhibition at 1 µM [10]: -2.7%
percentage of inhibition of activity [11]: 0.5%
percentage of inhibition of activity [12]: 82.8%
inhibition at 1 µM [13]: 0%
inhibition at 1 µM [14]: 6.1%
inhibition at 1 µM [15]: 3.2%
inhibition at 1 µM [16]: 2.4%
inhibition at 1 µM [17]: 19.5%
inhibition at 1 µM [18]: -9.2%
percentage of inhibition of activity [19]: 3.7%
inhibition at 1 µM [20]: 5%
